≈ marks a conversion by molar mass, not a printed value. Where “and” joins values, the source holds several entries; their conditions need not be identical. Equal values may be shown once. Square brackets hold non-standard residues; d marks the D form. Ends that are not written are not given here. Peptide text beside a SMILES is read from it.
Tests used:
E. coli (ATCC 25922) = assay: Anti-microbial performance against E. coli, with and without FICOLL 70; type: cell-based, Escherichia coli; settings: for Average EC50, E. coli: unit inferred; for fold increase in potency against E. coli: 20% FICOLL 70 versus none; for Anti-microbial performance of ATRA-1A isomers (EC50) E coli (ATCC 25922): Example 5, Table 9
Experimental: In these assays, bacteria (1×10^5 CFU/ml) were incubated for 3 hours at 37° C. with varied concentrations of peptide in 10 mM phosphate buffer (pH 7.4) containing 0 to 30% FICOLL™ 70. The potencies of the peptide isomers were determined by plotting bacterial survival (%) as a function of log peptide concentration and fitting the data to a standard dose response equation. Each experiment was conducted at least three times, with the exception of experiments with 15% and 30% FICOLL™, which were only performed once.

S. aureus biofilm = assay: Biofilm production (crystal violet) and growth (OD600) of S. aureus in TSB; type: cell-based, Staphylococcus aureus
Experimental: Biofilm production was measured as previously described (Durham-Colleran et al., supra) with the following modifications. […] The positive control was S. aureus in TSB with no peptide. Six wells were used for each peptide concentration (n=6). After 24 hours, the optical densities (OD) of the wells were taken at 600 nm to quantify […]. The biofilm production was measured using the crystal violet stain technique (Durham-Colleran et al., supra). All experiments were repeated at least twice.

B. cereus (ATCC 11778) = assay: Anti-microbial performance against B. cereus, with and without FICOLL 70; type: cell-based; settings: for fold increase in potency against B. cereus: 20% FICOLL 70 versus none
C. albicans (ATCC 14053) = assay: Anti-microbial assay (CFU survival, EC50) against C. albicans; type: cell-based, Candida albicans; settings: for EC50 against C. albicans: 3 hours, 37° C., 10 mM sodium phosphate pH 7.4, inconsistent colony growth; for Inhibition of C. albicans: at 500 and 100 μg; for EC50: converted with molecular weight
Experimental: C. albicans (ATCC 14053) was grown up in 25 mL of Sabouraud Dextrose (SO) broth for 48 hours at 25° C., after which samples were aliquoted into 2 mL microcentrifuge tubes at 0.5 mL.
On a 96-well plate, 1×10^4 CFU per well of C. albicans were incubated with different peptide concentrations (in serial dilutions of 1:10 and 1:5) starting with […] in a solution of buffer containing 10 mM sodium phosphate at pH 7.4 (3 hours, 37° C.). Serial dilutions were then carried out in 1× Dulbecco's PBS, and samples were plated in triplicate on Sabouraud Dextrose Agar plates, incubated (25° C., 48 hours) and CFUs were counted. C. albicans survival at each peptide concentration was calculated as previously described (Amer et al., supra; de Latour et al., supra), based on the percentage of the number of colonies in each experimental plate relative to the average number of colonies observed for assay cultures lacking peptide. […] In the equation, “Top” and “Bottom” refer to the upper and lower boundaries, and were constrained to values <100% and >0%, respectively. For graphing purposes, samples that had no peptide were plotted at 10^−9 μg/ml peptide. EC50 values were determined by fitting the data from the anti-microbial assays to a standard sigmoidal dose-response curve. Errors were reported based on the standard deviation from the mean of the log EC50 values. 2. Results

P. aeruginosa biofilm [1] = assay: Biofilm production (crystal violet) and growth (OD600) of P. aeruginosa in TSB; type: cell-based, Pseudomonas aeruginosa
Experimental: Biofilm production was measured as previously described (Durham-Colleran et al. (2010) Microb. Ecol., 59(3):457-465) with the following modifications. P. aeruginosa (1×10^5 CFU) in 200 μl of TSB media (Trypticase Soy Broth) was incubated with peptide at concentrations of 1.0, 0.1, and 0.01 μg/ml for 24 hours at 37° C. (Table 2). Optical density of the cultures (OD600 nm) at 24 hours was determined prior to staining as a measure of bacterial growth. Six wells were used for each peptide concentration (n=6). Biofilm production was measured using the crystal violet stain technique (Durham-Colleran et al., supra).

[2] = system: P. aeruginosa (ATCC 19429); assay: Anti-microbial assay (CFU survival, EC50) against P. aeruginosa; type: cell-based, Pseudomonas aeruginosa; settings: Example 6, FIG. 16; unit not given
Experimental: P. aeruginosa (ATCC 19429, American Type Culture Collection, Manassas, Va.) was grown in Nutrient Broth (Difco Laboratories, Detroit, Mich.) at 37° C. for 24 hours with shaking at 200 rpm. The CFU/ml was determined by growth on Nutrient Agar plates. For anti-microbial assays, frozen enumerated aliquots were thawed immediately before use.
Each experiment was repeated at least twice, and a representative experiment is shown, for clarity.

S. aureus (ATCC 25923) = assay: Anti-microbial assay (CFU survival, EC50) against S. aureus; type: cell-based, Staphylococcus aureus; settings: for EC50 against S. aureus, preliminary studies: Example 4, FIG. 10
Experimental: S. aureus (ATCC 25923, American Type Culture Collection, Manassas, Va.) was grown in Nutrient Broth (Difco Laboratories, Detroit, Mich.) at pH 7, 37° C., for 24 hours with shaking at 200 rpm. The overnight culture was frozen with 20% glycerol and stored at −80° C. The frozen stock was enumerated (CFU/ml) by dilution plating and growth on Nutrient Agar plates.
For anti-microbial assays, frozen enumerated aliquots were thawed and gently mixed immediately before use. […] Negative control wells contained bacteria with no peptide. […] The EC50 was calculated as previously described (de Latour et al., supra).
Errors were reported based on the standard deviation from the mean of the log10 EC50 values (Gordon et al., supra). 95% confidence intervals were used to determine whether points were statistically different at p=0.05.

A. baumannii = settings: Example 5, Table 9
Experimental: Anti-microbial activity was determined for each peptide isomer by enumerating the number of viable colony forming units after incubating bacteria in media containing varied concentrations of peptide.

P. aeruginosa = assay: Galleria mellonella infection by P. aeruginosa with AMP and antibiotic treatments; type: in vivo; settings: single dose: 5 μg ciprofloxacin or 10 μg peptide
Experimental: Galleria mellonella (wax moth caterpillars) were obtained from Vanderhorst Wholesale (Saint Marys, Ohio). Eight to twelve caterpillars of equal size/weight were randomly assigned to each group. A 1 mL tuberculin syringe was used to inject 10 μl of 1×10^3 CFU/ml of P. aeruginosa into each caterpillar via the last left proleg. […] Caterpillar control groups included: injected with only PBS, ciprofloxacin, or AMPs. The insects were then observed daily for their survival status.

S. aureus = assay: Biofilm attachment assay; type: cell-based, Staphylococcus aureus; settings: 1 μg/ml peptide, 1 hour, 37° C.
Experimental: Biofilm attachment assays were performed in 96-well microtiter plates (BD Falcon 353072) as previously described (Overhage et al., supra). Overnight cultures of S. aureus were grown in TSB to an OD600 of about 1.0. […] The plates were incubated (1 hour, 37° C.) to allow the S. aureus to adhere to the wells. The wells were washed and OD600 measurements were taken, as in the biofilm production experiments, and the average absorbance for each treatment was determined (n=16).

P. aeruginosa biofilm [3] = settings: Overhage et al.; cited from earlier work

Compound	Average EC50, E. coli (E. coli (ATCC 25922); 0% FICOLL 70)	Average EC50, E. coli (E. coli (ATCC 25922); 5% FICOLL 70)	Average EC50, E. coli (E. coli (ATCC 25922); 10% FICOLL 70)	Average EC50, E. coli (E. coli (ATCC 25922); 15% FICOLL 70, performed once)	Average EC50, E. coli (E. coli (ATCC 25922); 20% FICOLL 70)	fold increase in potency against E. coli (E. coli (ATCC 25922))	Average EC50, E. coli (E. coli (ATCC 25922); 30% FICOLL 70, performed once)	Anti-microbial performance of ATRA-1A isomers (EC50) E coli (ATCC 25922) (E. coli (ATCC 25922))	EC50 with 20% FICOLL 70, E. coli (E. coli (ATCC 25922))	EC50 without FICOLL 70, E. coli (E. coli (ATCC 25922))	fold increase in potency against B. cereus (B. cereus (ATCC 11778))	EC50 with 20% FICOLL 70, B. cereus (B. cereus (ATCC 11778))	EC50 without FICOLL 70, B. cereus (B. cereus (ATCC 11778))	EC50 against C. albicans (C. albicans (ATCC 14053))	Inhibition of C. albicans (C. albicans (ATCC 14053))	EC50 (C. albicans (ATCC 14053))	average EC50 against P. aeruginosa [2]	EC50 against S. aureus, preliminary studies (S. aureus (ATCC 25923))	Anti-microbial performance of ATRA-1A isomers (EC50) A. baumannii (A. baumannii)	other results
CC(C)C[C@@H](NC(=O)[C@@H](CCCCN)NC(=O)[C@@H](CCCCN)NC(=O)[C@@H](Cc1ccccc1)NC(=O)[C@@H](Cc1ccccc1)NC(=O)[C@@H](CCCCN)NC(=O)[C@@H](CCCCN)NC(=O)[C@@H](C)NC(=O)[C@@H](CCCNC(=N)N)NC(=O)[C@H](N)CCCCN)C(=O)N[C@H](CCCCN)C(N)=O [D-ATRA-1A] (H-[dK][dR][dA][dK][dK][dF][dF][dK][dK][dL][dK]-NH2; N-terminus assumed)	1.3 µg/mL	0.71 µg/mL	0.24 µg/mL	0.1 µg/mL	0.085 µg/mL	13.66 fold	0.01 µg/mL	1.302 µg/mL	0.0850 µg/mL	1.302 µg/mL	54.34 fold	0.0406 µg/mL	2.330 µg/mL	22.10 µg/mL (≈ 15.6 µM)	consistently seen	15.6 µM	9.643 (CI 6.5 to 14.2)	6.97 µg/mL (≈ 4.91 µM)	9.73 µg/mL	inhibiting biofilm growth, D- versus L-ATRA-1A (S. aureus biofilm; 1 μg/ml, FIG. 20): more effective at inhibiting biofilm growth; inhibiting biofilm growth, D- versus L-ATRA-1A (P. aeruginosa biofilm [1]; 1 μg/ml, FIG. 20): more effective at inhibiting biofilm growth; fold difference in activities of L- and D-ATRA-1A against S. aureus (S. aureus (ATCC 25923); D less effective than L): 30 fold; EC50 against S. aureus, two best data sets (S. aureus (ATCC 25923); Example 6, FIGS. 14 and 15, left and right panels): 26.53 µg/mL and 25.02 µg/mL
O=C(O)c1cn(C2CC2)c2cc(N3CCNCC3)c(F)cc2c1=O [ciprofloxacin]	–	–	–	–	–	–	–	–	–	–	–	–	–	–	–	–	–	–	–	effect on survival of infected G. mellonella (P. aeruginosa): effective; survival of P. aeruginosa-infected G. mellonella (P. aeruginosa; 1×10^3 CFU): 55%
GLKLRFEFSKIKGEFLKTPEVRFRDIKLKDNRISVQR [Scrambled LL-37, reference compound]	–	–	–	–	–	–	–	–	–	–	–	–	–	–	–	–	–	–	–	inhibition of biofilm formation (S. aureus biofilm; TSB, concentrations without anti-microbial activity): no inhibition of biofilm formation; attachment of S. aureus to polystyrene wells (S. aureus): did not decrease; inhibition of biofilm formation (P. aeruginosa biofilm [1]; TSB, any concentration tested (up to 1 μg/ml)): no inhibition of biofilm formation
GLLRKGGEKIGEKLKKIGQKIKNFFQKLVPQPEQ [mCRAMP]	–	–	–	–	–	–	–	–	–	–	–	–	–	–	–	–	–	–	–	inhibitory effect on biofilm formation, previously known (P. aeruginosa biofilm [3]): no inhibitory effect
KRAKKFFKKLK-NH2 [ATRA-1A]	2.9 µg/mL	1.6 µg/mL	0.86 µg/mL	0.64 µg/mL	0.42 µg/mL	10.66 fold	0.29 µg/mL	4.323 µg/mL	0.420 µg/mL	4.232 µg/mL	14 fold	5.207 µg/mL	72.41 µg/mL	33.38 µg/mL	consistently seen	23.5 µM	14.22 (CI 10.4 to 19.4)	0.27 µg/mL	53.25 µg/mL	EC50 of AMPs against S. aureus (S. aureus (ATCC 25923); 3 hours, 37° C., 10 mM sodium phosphate pH 7.4, ± standard deviation): 1.45 ± 1.5 µg/mL; Anti-microbial performance of ATRA-1A isomers (EC50) S. aureus (S. aureus (ATCC 25923); Example 5, Table 9): 1.45 µg/mL; EC50 (S. aureus (ATCC 25923); converted from μg/ml with molecular weight of TFA salt): 0.62 µM

Source: patent US10174081B2, “Antimicrobial peptides and uses therefore” (priority 2011, dated 2019)
